Results published in ChEMBL document CHEMBL1152254, “Synthesis, biological evaluation, and molecular modeling investigation of chiral 2-(4-chloro-phenoxy)-3-phenyl-propanoic acid derivatives with PPARalpha and PPARgamma agonist activity” (Bioorg Med Chem, 2008).
Active and inactive are the calls of the source. The calls are words filed in the database; no cut-off is given here.

Experiments:
Assay type in all cases: cell-based
[1] = molecular target: T1, Peroxisome proliferator-activated receptor gamma (Homo sapiens, UniProt P37231); experiment: (§1) Agonist activity at human PPARgamma ligand binding domain expressed in human HepG2 cells co-transfected with Gal4 by luciferase reporter gene assay
T1 sequence (P37231 whole entry): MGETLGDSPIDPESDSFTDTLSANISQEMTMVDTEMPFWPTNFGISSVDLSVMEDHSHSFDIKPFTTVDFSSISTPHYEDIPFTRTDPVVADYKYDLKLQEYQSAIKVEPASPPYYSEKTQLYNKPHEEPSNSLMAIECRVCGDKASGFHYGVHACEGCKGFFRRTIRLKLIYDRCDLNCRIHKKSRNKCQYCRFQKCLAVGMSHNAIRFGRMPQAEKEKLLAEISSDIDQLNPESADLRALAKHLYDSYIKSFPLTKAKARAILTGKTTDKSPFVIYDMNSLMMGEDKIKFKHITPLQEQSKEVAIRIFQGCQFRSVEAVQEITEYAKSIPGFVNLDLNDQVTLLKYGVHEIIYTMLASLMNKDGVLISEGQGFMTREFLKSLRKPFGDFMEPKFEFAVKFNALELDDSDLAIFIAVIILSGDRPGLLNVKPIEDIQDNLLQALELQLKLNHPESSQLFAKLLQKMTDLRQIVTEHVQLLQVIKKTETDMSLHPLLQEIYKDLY

[2] = molecular target: T2, Peroxisome proliferator-activated receptor alpha (Homo sapiens, UniProt Q07869); experiment: (§2) Agonist activity at human PPARalpha ligand binding domain expressed in human HepG2 cells co-transfected with Gal4 by luciferase reporter gene assay
T2 sequence (Q07869 whole entry): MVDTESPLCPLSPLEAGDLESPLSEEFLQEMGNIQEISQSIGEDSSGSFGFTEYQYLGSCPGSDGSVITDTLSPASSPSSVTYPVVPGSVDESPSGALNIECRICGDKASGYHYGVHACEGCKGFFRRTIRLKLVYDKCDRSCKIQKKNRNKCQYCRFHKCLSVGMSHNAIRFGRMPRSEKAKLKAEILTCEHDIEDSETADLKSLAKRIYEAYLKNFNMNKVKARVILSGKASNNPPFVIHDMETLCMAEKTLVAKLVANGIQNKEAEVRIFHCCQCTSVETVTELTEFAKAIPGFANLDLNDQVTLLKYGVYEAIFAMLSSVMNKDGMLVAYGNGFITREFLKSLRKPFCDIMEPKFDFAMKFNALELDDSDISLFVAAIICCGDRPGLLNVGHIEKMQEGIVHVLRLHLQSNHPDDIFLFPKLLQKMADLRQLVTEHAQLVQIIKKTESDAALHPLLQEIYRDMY

[3] = molecular target: T3, Peroxisome proliferator-activated receptor alpha (Homo sapiens) (UniProt Q07869); experiment: Agonist activity at human PPARalpha ligand binding domain expressed in human HepG2 cells co-transfected with Gal4 by luciferase reporter gene assay relative to Wy-14,643
T3 sequence (whole entry): T2 sequence (Q07869 whole entry)

[4] = molecular target: T4, Peroxisome proliferator-activated receptor gamma (Homo sapiens) (UniProt P37231); experiment: as §1
T4 sequence (whole entry): T1 sequence (P37231 whole entry)

[5] = molecular target: T3, Peroxisome proliferator-activated receptor alpha (Homo sapiens); experiment: as §2

Structure (SMILES): O=C(O)[C@H](Cc1ccc(Oc2ccccc2)cc1)Oc1ccc(Cl)cc1
- EC50 [1]: 0.87 µM
- EC50 [2]: 0.027 µM
- Efficacy [3]: 68%

Structure (SMILES): O=C(O)C(Cc1ccccc1)Oc1c(Cl)cc(Cl)cc1Cl (racemic)
- Activity [4]: inactive
- Activity [5]: inactive
- Activity [3]: inactive

Structure (SMILES): O=C(O)C(Cc1ccccc1Br)Oc1ccc(Cl)cc1 (racemic)
- EC50 [1]: 2.48 µM
- EC50 [2]: 2.25 µM
- Efficacy [3]: 57%

Structure (SMILES): Cc1cc(Cl)ccc1OC(Cc1ccccc1)C(=O)O (racemic)
- Efficacy [3]: 34%

Structure (SMILES): O=C(O)[C@H](Cc1ccc(C(F)(F)F)cc1)Oc1ccc(Cl)cc1
- EC50 [1]: 3.65 µM
- EC50 [2]: 0.42 µM
- Efficacy [3]: 69%

Structure (SMILES): CCCc1ccc(CC(Oc2ccc(Cl)cc2)C(=O)O)cc1 (stereo not drawn)
- EC50 [1]: 1.39 µM
- EC50 [2]: 0.35 µM
- Efficacy [3]: 39%

Structure (SMILES): CCCCCCc1ccc(CC(Oc2ccc(Cl)cc2)C(=O)O)cc1 (stereo not drawn)
- EC50 [2]: 0.45 µM
- Efficacy [3]: 56%

Structure (SMILES): O=C(O)C(Cc1cccc(Oc2ccccc2)c1)Oc1ccc(Cl)cc1 (racemic)
- EC50 [1]: 3.06 µM
- EC50 [2]: 0.24 µM
- Efficacy [3]: 57%

Structure (SMILES): Cc1ccc(CC(Oc2ccc(Cl)cc2)C(=O)O)cc1 (racemic)
- EC50 [1]: 4.36 µM
- EC50 [2]: 2.81 µM
- Efficacy [3]: 53%

Structure (SMILES): O=C(O)C(Cc1ccccc1)Oc1ccc(Cl)cc1Cl (racemic)
- EC50 [2]: 2.12 µM
- Efficacy [3]: 50%

Structure (SMILES): O=C(O)C(Cc1ccccc1)Oc1ccc(Cl)c(Cl)c1 (racemic)
- EC50 [1]: 2.55 µM
- EC50 [2]: 4.49 µM
- Efficacy [3]: 27%

Structure (SMILES): O=C(O)[C@H](Cc1ccc(-c2cccs2)cc1)Oc1ccc(Cl)cc1
- EC50 [1]: 0.59 µM
- EC50 [2]: 0.065 µM
- Efficacy [3]: 71%

Structure (SMILES): O=C(O)C(Cc1ccccc1C(F)(F)F)Oc1ccc(Cl)cc1 (racemic)
- EC50 [1]: 4.03 µM
- EC50 [2]: 2.49 µM
- Efficacy [3]: 43%

Structure (SMILES): O=C(O)C(Cc1ccccc1-c1ccccc1)Oc1ccc(Cl)cc1 (stereo not drawn)
- Activity [4]: inactive
- Activity [5]: inactive
- Activity [3]: inactive

Structure (SMILES): Cc1ccccc1CC(Oc1ccc(Cl)cc1)C(=O)O (racemic)
- EC50 [1]: 8.54 µM
- EC50 [2]: 9.25 µM
- Efficacy [3]: 50%

Structure (SMILES): CCCc1ccccc1CC(Oc1ccc(Cl)cc1)C(=O)O (stereo not drawn)
- EC50 [1]: 3.68 µM
- EC50 [2]: 1.43 µM
- Efficacy [3]: 43%

Structure (SMILES): Cc1cccc(C)c1CC(Oc1ccc(Cl)cc1)C(=O)O (racemic)
- Activity [4]: inactive
- Activity [5]: inactive
- Activity [3]: inactive

Structure (SMILES): O=C(O)[C@@H](Cc1ccc(Oc2ccccc2)cc1)Oc1ccc(Cl)cc1
- EC50 [1]: 11.3 µM
- EC50 [2]: 0.7 µM
- Efficacy [3]: 15%

Structure (SMILES): CN(CCOc1ccc(CC2SC(=O)NC2=O)cc1)c1ccccn1 (stereo not drawn)
- Activity [4]: inactive
- Efficacy [3]: 100%

Structure (SMILES): O=C(O)[C@H](Cc1ccccc1)Oc1ccc(Cl)cc1
- EC50 [1]: 7.94 µM
- EC50 [2]: 14.5 µM
- Efficacy [3]: 48%

Structure (SMILES): CCCCCCc1cc(Cl)ccc1OC(Cc1ccccc1)C(=O)O (racemic)
- Activity [4]: inactive
- Activity [5]: inactive
- Activity [3]: inactive

Structure (SMILES): O=C(O)C(Cc1ccccc1)Oc1ccc(Cl)cc1Br (racemic)
- EC50 [2]: 1.65 µM
- Efficacy [3]: 41%

Structure (SMILES): O=C(O)[C@H](Cc1ccc(-c2ccccc2)cc1)Oc1ccc(Cl)cc1
- EC50 [1]: 1.12 µM
- EC50 [2]: 0.049 µM
- Efficacy [3]: 70%

Structure (SMILES): O=C(O)C(Cc1ccc(Cl)cc1)Oc1ccc(Cl)cc1 (racemic)
- EC50 [1]: 3.16 µM
- EC50 [2]: 2.23 µM
- Efficacy [3]: 49%

Structure (SMILES): O=C(O)C(Cc1ccccc1)Oc1ccc(Cl)cc1-c1ccccc1 (racemic)
- Activity [4]: inactive
- Activity [5]: inactive
- Activity [3]: inactive

Structure (SMILES): O=C(O)C(Cc1ccccc1Oc1ccccc1)Oc1ccc(Cl)cc1 (racemic)
- Activity [4]: inactive
- EC50 [2]: 1.14 µM
- Efficacy [3]: 40%

Structure (SMILES): O=C(O)C(Cc1c(Cl)cccc1Cl)Oc1ccc(Cl)cc1 (racemic)
- Activity [4]: inactive
- Activity [5]: inactive
- Activity [3]: inactive

Structure (SMILES): O=C(O)C(Cc1ccccc1Cl)Oc1ccc(Cl)cc1 (racemic)
- EC50 [1]: 2.23 µM
- EC50 [2]: 2.18 µM
- Efficacy [3]: 44%

Structure (SMILES): CCCCCCc1ccccc1CC(Oc1ccc(Cl)cc1)C(=O)O (stereo not drawn)
- Activity [4]: inactive
- Activity [5]: inactive
- Activity [3]: inactive

Structure (SMILES): CCCc1cc(Cl)ccc1OC(Cc1ccccc1)C(=O)O (stereo not drawn)
- Efficacy [3]: 18%

Structure (SMILES): O=C(O)C(Cc1ccc(Oc2ccccc2)cc1)Oc1ccc(Cl)cc1 (racemic)
- EC50 [1]: 1.06 µM
- EC50 [2]: 0.064 µM
- Efficacy [3]: 58%

Structure (SMILES): Cc1cc(Cl)cc(C)c1OC(Cc1ccccc1)C(=O)O (racemic)
- Activity [4]: inactive
- Activity [5]: inactive
- Activity [3]: inactive

Structure (SMILES): Cc1cccc(Nc2cc(Cl)nc(SCC(=O)O)n2)c1C
- Activity [5]: inactive
- Activity [3]: inactive

Structure (SMILES): O=C(O)C(Cc1ccc(Br)cc1)Oc1ccc(Cl)cc1 (racemic)
- EC50 [1]: 2.07 µM
- EC50 [2]: 1.1 µM
- Efficacy [3]: 46%
